Source: publication PMC11261605, “Photocontrolled Reversible Amyloid Fibril Formation of Parathyroid Hormone-Derived Peptides” (Bioconjugate Chemistry, 2024)
Values after ≈ are worked out from the molar mass of the structure shown. *1 amine or outer side, *2 acyl side, *3 side chain or, on linkers, in order; H or OH if unused. Where a SMILES comes first, the peptide text is derived from it. Where no end group is shown, it is not given here. [ ]: non-standard residue; d: D form. X1 = O=C(c1cccc(N=Nc2ccc(CN[*:1])cc2)c1)[*:2]

Assays:
[1] = Maximal solubility in buffered solution; type: physicochemical; conditions: phosphate buffer, aqueous buffer; maximal solubility from solid (0.5 mg portions into 1 mL until precipitate); 50 mM aqueous Na2HPO4 pH 7.4; centrifuged 10 000 rpm 1 h 4 °C; supernatant by UV/vis absorbance
Experimental: UV/vis-absorbance spectroscopy was measured on a JASCO V-660 absorbance spectrometer in a 1 cm quartz glass cuvette. For PTH25–37, the absorbance was measured at 205 nm with a molar extinction coefficient of 49.310 cm^–1 M^–1; trans-azobenzene containing peptides were measured at 327 nm with a molar extinction coefficient of 13.000 cm^–1 M^–1. CD spectroscopy was measured with a JASCO J-1500 CD Spectrometer in either a 1 mm. As buffered solution, a 50 mM aqueous Na2HPO4 buffer solution was used with a pH value adjusted to 7.4. Transmission was measured with a Litesizer DLS 500 from Anton Paar using a 3 mm × 3 mm quartz glass cuvette. The irradiation wavelength was 658 nm. The equilibration time was 1 min, and the measurement time was 10 s. The temperature was maintained at 25 °C.
To determine the maximal solubility of a peptide, small amounts (0.5 mg) of the respective peptide were added to 1 mL of buffered solution and shacked for 10 s until an insoluble precipitate was visible. The suspensions were centrifuged at 10 000 rpm for 1 h at 4 °C, and the supernatant was transferred to another tube. The remaining monomer concentration was determined using UV/vis-absorbance spectroscopy. To determine the critical concentration ccr, two samples were prepared for each peptide according to the procedure for the ThT monitored fibrillization assay, one with ThT as a reference sample and the other one without ThT. Twenty hours after the reference sample reached the stationary phase, the fibril containing solutions from the sample without ThT were transferred to a tube and centrifuged at 10 000 rpm for 1 h at room temperature. The supernatant was transferred to another tube, and the concentration of the remaining monomers was determined using UV/vis-absorbance spectroscopy at 278 nm with a molar extinction coefficient of 3750 cm^–1 M^–1 for the azobenzene containing peptides and at 205 nm with a molar extinction coefficient of 49 310 cm^–1 M^–1 for PTH25–37.

[2] = test system: NHDF cells; test: Resazurin reduction cell viability assay on NHDF fibroblasts; type: cell-based, human; conditions: trans-isomers, serial dilutions, 24 h or 96 h incubation, n = 8 per treatment, 3 independent experiments
Experimental: (§1) Cell viability was determined for trans-P4, trans-P8, and trans-P12 on NHDF as well as 3T3 fibroblasts with a resazurin reduction assay. Briefly, cells were seeded at desired cell densities in corresponding culture media supplemented with 10% FCS and penicillin/streptomycin in 96-well plates on day 0 and incubated overnight under standard cell culture conditions. On day 1, serial dilutions of the peptides in cell culture media were prepared. Then, medium (background and negative control–100% viability), TritonX in medium f.c. 0.025% (postive control–0% viability), and the peptide dilutions were added with one treatment per column (n = 8). Incubation for 24 h or 96 h under standard cell culture conditions followed. On day of measurement, resazurin stock solution was added to a final concentration of 44 μM into each well. After 2 h incubation, the resorufin fluorescence was measured with a Cytation 5 plate reader system. Means and standard deviation of each column were calculated. Experiments were repeated independently 3 times, and average values were evaluated (see Figure S12).
(§2) Figure S12: Cell viability assay of trans-P4, trans-P8, and trans-P12 on NHDF (human, adult, fibroblasts) and 3T3 (murine,
(§3) embryonal, fibroblasts) cells after 24 h (blue) and 96 h (orange). 100% cell viability corresponds to the value of the negative,
(§4) (1 picture or pasted object on this page, not shown here)

[3] = test system: 3T3 cells; test: Resazurin reduction cell viability assay on 3T3 fibroblasts; type: cell-based, murine; conditions: trans-isomers, serial dilutions, 24 h or 96 h incubation, n = 8 per treatment, 3 independent experiments
Experimental: as §1, §2, §3, §4

| solubility thermodynamic at 10 s [1] | Molecule | toxicity toward NHDF cells [2] | toxicity toward 3T3 cells [3] |
| --- | --- | --- | --- |
| 200 µM (≈ 361 µg/mL) | CC(C)C[C@H](NC(=O)[C@H](C)NC(=O)[C@@H](NC(=O)[C@H](Cc1ccccc1)NC(=O)[C@H](CC(N)=O)NC(=O)[C@H](Cc1c[nH]cn1)NC(=O)[C@@H](NC(=O)[C@H](CC(=O)O)NC(=O)[C@H](CCC(N)=O)NC(=O)[C@H](CC(C)C)NC(=O)[C@H](CCCCN)NC(=O)c1cccc(N=Nc2ccc(CNC(=O)[C@H](CCCCN)NC(=O)[C@@H](N)CCCNC(=N)N)cc2)c1)C(C)C)C(C)C)C(=O)O [P8] (H-RK[X1]KLQDVHNFVAL-OH) | did not observe any toxicity | did not observe any toxicity |
| 130 µM (≈ 218 µg/mL) | CC(C)C[C@H](NC(=O)[C@H](C)NC(=O)[C@@H](NC(=O)[C@H](Cc1ccccc1)NC(=O)[C@H](CC(N)=O)NC(=O)[C@H](Cc1c[nH]cn1)NC(=O)[C@@H](NC(=O)[C@H](CC(=O)O)NC(=O)[C@H](CCC(N)=O)NC(=O)[C@H](CC(C)C)NC(=O)[C@H](CCCCN)NC(=O)c1cccc(N=Nc2ccc(CNC(=O)[C@@H](N)CCCNC(=N)N)cc2)c1)C(C)C)C(C)C)C(=O)O [P9] (H-R[X1]KLQDVHNFVAL-OH) |  |  |
| 7 µM (≈ 12.6 µg/mL) | CC(C)C[C@H](NC(=O)[C@H](C)NC(=O)[C@@H](NC(=O)[C@H](Cc1ccccc1)NC(=O)c1cccc(N=Nc2ccc(CNC(=O)[C@H](CC(N)=O)NC(=O)[C@H](Cc3c[nH]cn3)NC(=O)[C@@H](NC(=O)[C@H](CC(=O)O)NC(=O)[C@H](CCC(N)=O)NC(=O)[C@H](CC(C)C)NC(=O)[C@H](CCCCN)NC(=O)[C@H](CCCCN)NC(=O)[C@@H](N)CCCNC(=N)N)C(C)C)cc2)c1)C(C)C)C(=O)O [P10] (H-RKKLQDVHN[X1]FVAL-OH) |  |  |
| 20 µM (≈ 36.1 µg/mL) | CC(C)C[C@H](NC(=O)[C@H](C)NC(=O)c1cccc(N=Nc2ccc(CNC(=O)[C@@H](NC(=O)[C@H](Cc3ccccc3)NC(=O)[C@H](CC(N)=O)NC(=O)[C@H](Cc3c[nH]cn3)NC(=O)[C@@H](NC(=O)[C@H](CC(=O)O)NC(=O)[C@H](CCC(N)=O)NC(=O)[C@H](CC(C)C)NC(=O)[C@H](CCCCN)NC(=O)[C@H](CCCCN)NC(=O)[C@@H](N)CCCNC(=N)N)C(C)C)C(C)C)cc2)c1)C(=O)O [P11] (H-RKKLQDVHNFV[X1]AL-OH) |  |  |
| 135 µM (≈ 230 µg/mL) | CC(C)C[C@H](NC(=O)[C@H](C)NC(=O)c1cccc(N=Nc2ccc(CNC(=O)[C@H](Cc3ccccc3)NC(=O)[C@H](CC(N)=O)NC(=O)[C@H](Cc3c[nH]cn3)NC(=O)[C@@H](NC(=O)[C@H](CC(=O)O)NC(=O)[C@H](CCC(N)=O)NC(=O)[C@H](CC(C)C)NC(=O)[C@H](CCCCN)NC(=O)[C@H](CCCCN)NC(=O)[C@@H](N)CCCNC(=N)N)C(C)C)cc2)c1)C(=O)O [P12] (H-RKKLQDVHNF[X1]AL-OH) | did not observe any toxicity | did not observe any toxicity |
| > 500 µM | RKKLQDVHNFVAL [PTH25–37, reference compound] |  |  |

The remaining lines, values behind:

| Molecule | solubility thermodynamic at 10 s [1] | toxicity toward NHDF cells [2] | toxicity toward 3T3 cells [3] |
| --- | --- | --- | --- |
| CC(C)C[C@H](NC(=O)[C@H](C)NC(=O)[C@@H](NC(=O)[C@H](Cc1ccccc1)NC(=O)[C@H](CC(N)=O)NC(=O)[C@H](Cc1c[nH]cn1)NC(=O)[C@@H](NC(=O)c1cccc(N=Nc2ccc(CNC(=O)[C@H](CC(=O)O)NC(=O)[C@H](CCC(N)=O)NC(=O)[C@H](CC(C)C)NC(=O)[C@H](CCCCN)NC(=O)[C@H](CCCCN)NC(=O)[C@@H](N)CCCNC(=N)N)cc2)c1)C(C)C)C(C)C)C(=O)O [P1] (H-RKKLQD[X1]VHNFVAL-OH) | 90 µM (≈ 162 µg/mL) |  |  |
| CC(C)C[C@H](NC(=O)[C@H](C)NC(=O)[C@@H](NC(=O)[C@H](Cc1ccccc1)NC(=O)[C@H](CC(N)=O)NC(=O)[C@H](Cc1c[nH]cn1)NC(=O)c1cccc(N=Nc2ccc(CNC(=O)[C@@H](NC(=O)[C@H](CC(=O)O)NC(=O)[C@H](CCC(N)=O)NC(=O)[C@H](CC(C)C)NC(=O)[C@H](CCCCN)NC(=O)[C@H](CCCCN)NC(=O)[C@@H](N)CCCNC(=N)N)C(C)C)cc2)c1)C(C)C)C(=O)O [P2] (H-RKKLQDV[X1]HNFVAL-OH) | 60 µM (≈ 108 µg/mL) |  |  |
| CC(C)C[C@H](NC(=O)[C@H](C)NC(=O)[C@@H](NC(=O)[C@H](Cc1ccccc1)NC(=O)[C@H](CC(N)=O)NC(=O)[C@H](Cc1c[nH]cn1)NC(=O)[C@@H](NC(=O)c1cccc(N=Nc2ccc(CNC(=O)[C@H](CCC(N)=O)NC(=O)[C@H](CC(C)C)NC(=O)[C@H](CCCCN)NC(=O)[C@H](CCCCN)NC(=O)[C@@H](N)CCCNC(=N)N)cc2)c1)C(C)C)C(C)C)C(=O)O [P3] (H-RKKLQ[X1]VHNFVAL-OH) | 35 µM (≈ 59.2 µg/mL) |  |  |
| CC(C)C[C@H](NC(=O)[C@H](C)NC(=O)[C@@H](NC(=O)[C@H](Cc1ccccc1)NC(=O)[C@H](CC(N)=O)NC(=O)[C@H](Cc1c[nH]cn1)NC(=O)c1cccc(N=Nc2ccc(CNC(=O)[C@H](CC(=O)O)NC(=O)[C@H](CCC(N)=O)NC(=O)[C@H](CC(C)C)NC(=O)[C@H](CCCCN)NC(=O)[C@H](CCCCN)NC(=O)[C@@H](N)CCCNC(=N)N)cc2)c1)C(C)C)C(=O)O [P4] (H-RKKLQD[X1]HNFVAL-OH) | 370 µM (≈ 631 µg/mL) | did not observe any toxicity | did not observe any toxicity |
| CC(C)C[C@H](NC(=O)[C@H](C)NC(=O)[C@@H](NC(=O)[C@H](Cc1ccccc1)NC(=O)[C@H](CC(N)=O)NC(=O)[C@H](Cc1c[nH]cn1)NC(=O)c1cccc(N=Nc2ccc(CNC(=O)[C@H](CCC(N)=O)NC(=O)[C@H](CC(C)C)NC(=O)[C@H](CCCCN)NC(=O)[C@H](CCCCN)NC(=O)[C@@H](N)CCCNC(=N)N)cc2)c1)C(C)C)C(=O)O [P5] (H-RKKLQ[X1]HNFVAL-OH) | 25 µM (≈ 39.8 µg/mL) |  |  |
| CC(C)C[C@H](NC(=O)[C@H](C)NC(=O)[C@@H](NC(=O)[C@H](Cc1ccccc1)NC(=O)[C@H](CC(N)=O)NC(=O)[C@H](Cc1c[nH]cn1)NC(=O)[C@@H](NC(=O)[C@H](CC(=O)O)NC(=O)c1cccc(N=Nc2ccc(CNC(=O)[C@H](CCC(N)=O)NC(=O)[C@H](CC(C)C)NC(=O)[C@H](CCCCN)NC(=O)[C@H](CCCCN)NC(=O)[C@@H](N)CCCNC(=N)N)cc2)c1)C(C)C)C(C)C)C(=O)O [P6] (H-RKKLQ[X1]DVHNFVAL-OH) | 20 µM (≈ 36.1 µg/mL) |  |  |
| CC(C)C[C@H](NC(=O)[C@H](C)NC(=O)[C@@H](NC(=O)[C@H](Cc1ccccc1)NC(=O)[C@H](CC(N)=O)NC(=O)[C@H](Cc1c[nH]cn1)NC(=O)[C@@H](NC(=O)[C@H](CC(=O)O)NC(=O)[C@H](CCC(N)=O)NC(=O)c1cccc(N=Nc2ccc(CNC(=O)[C@H](CC(C)C)NC(=O)[C@H](CCCCN)NC(=O)[C@H](CCCCN)NC(=O)[C@@H](N)CCCNC(=N)N)cc2)c1)C(C)C)C(C)C)C(=O)O [P7] (H-RKKL[X1]QDVHNFVAL-OH) | 140 µM (≈ 253 µg/mL) |  |  |
